{
  "source": "paper PMC11285948",
  "about": "“The effects of CYP2B6 inactivators on the metabolism of ciprofol” (PLOS ONE, 2024)",
  "key": {"[1]": {"system": "typical substrates of CYP1A2, CYP2B6, and CYP2C19", "conditions": "IVIVE and PBPK simulations; ref Hou et al. 9; cited from earlier work"}, "[2]": {"system": "human liver microsomes (HLMs)", "assay": "Ciprofol metabolism in HLM incubation system (incubation time, protein concentration, enzyme kinetics)", "type": "in vitro ADME", "conditions": "for reduction of ciprofol ΔC (Enzymatic reaction kinetics): ΔC1-ΔC3 and Mean; for ciprofol concentration in incubation system (Incubation time) / ciprofol concentration in incubation system (Liver microsomal protein concentration): C1-C3 and Mean; for ciprofol concentration in incubation system (Liver microsomal protein concentration): ciprofol 40 μg·mL^-1, 60 min", "method": "The volume of the incubation system was 200 μL and included 2 μL of substrate (ciprofol), 8 μL of rat liver microsomes (RLMs) or 6 μL of human liver microsomes (HLMs), 12 μL of NADPH generation system of solution (solution A 10 μL, solution B 2 μL), and the remaining volume was PBS. The incubation was performed in a water bath at a constant temperature of 37°C, and each sample was incubated three times in parallel.\nThe incubation system was removed from the water bath, and the reaction was terminated immediately by adding 800 μL of reaction termination solution (acetonitrile solution containing 5 μg·mL^-1 D6-ciprofol at 4°C). The mixture was vortexed for 2 min and centrifuged for 15 min, after which the supernatant was transferred to an autosampler vial for HPLC-MS/MS detection.\nThe concentrations of ciprofol and liver microsomal proteins in the RLM incubation system were set at 25 μg·mL^-1 and 0.8 mg·mL^-1, respectively, whereas those in the HLM incubation system were set at 40 μg·mL^-1 and 0.6 mg·mL^-1, respectively. Samples were obtained and assayed after 0, 10, 20, 30, 40, 60, 80, 100 and 120 min of incubation, and the optimum incubation time was determined according to the decreasing trend in ciprofol concentration.\nThe ciprofol concentrations in the RLM and HLM incubation systems were set at 25 and 40 μg·mL^-1, respectively. The liver microsomal protein concentrations were 0, 0.1, 0.2, 0.4, 0.6, 0.8 and 1.0 mg·mL^-1. The optimal protein concentration in the incubation system was determined based on the reduction of ciprofol (ΔC) after 40 min of incubation in RLMs and 60 min in HLMs.\nThe liver microsomal protein concentrations in the RLM incubation system and the HLM incubation system were 0.8 mg·mL^-1 and 0.6 mg·mL^-1, and the cells were incubated for 40 min and 60 min, respectively. The ciprofol concentrations in the incubation system were set at 4, 8, 16, 32, 48 and 80 μg·mL^-1, and the kinetic parameters of ciprofol metabolism were investigated based on ΔC values at different initial ciprofol concentrations (C0).\nThe substrate elimination method was employed in this study, and GraphPad Prism 8.0.2 software was used for statistical processing, including determination of the kinetic parameters of ciprofol metabolism and the IC50 values of psoralen and clopidogrel for ciprofol metabolism. The maximum velocity (Vmax), Michaelis constant (Km) and intrinsic clearance (CLint) were calculated using the […]: V=Vmax×[S]/Km+[S] CLint=Vmax/Km"}, "[3]": {"assay": "Stability of ciprofol QC samples in rat plasma", "type": "physicochemical", "parameters": "calculated concentration, mean: unit: ng/mL", "method": "5 μL of IS solution (2.5 μg·mL^-1 D6-ciprofol) was added to 100 μL of plasma and mixed. Then, 300 μL of acetonitrile was added. The mixture was vortexed for 2 min and centrifuged for 10 min, and the supernatant was transferred to an autosampler vial for HPLC-MS/MS detection.\nTo investigate the stability of ciprofol under a variety of conditions, three groups of liver microsome QC sample solutions were prepared, and one group was immediately processed and analysed as described in Section 2.4.2. Another group was stored at room temperature for 8 hours before treatment and assessment. The other group was treated and placed in the autosampler (4°C) for 24 h and subsequently analysed. In addition, simulated plasma QC samples were prepared in five groups: one group was processed and measured immediately as described in Section 2.4.3, and another group was placed in the autosampler for 24 h after treatment. The other three groups were placed at room temperature for 8 h, stored at -40°C for 30 d, frozen and thawed three times, respectively, and then processed and detected as described in Section 2.4.3. All the above samples were tested in parallel in five batches."}},
  "note": "Where “and” joins values, the source holds several entries; their conditions need not be identical. Identical values can stand only once.",
  "data": [
    {"smiles": "CC(C)c1cccc([C@H](C)C2CC2)c1O", "note": "[ciprofol]", "values": [
      {"measurement": "predicted drug-drug interactions with typical substrates of CYP1A2, CYP2B6, and CYP2C19", "setting": "[1]", "value": "did not cause drug‒drug interactions"},
      {"measurement": "Km of ciprofol metabolism", "setting": "[2]; HLMs 0.6 mg·mL^-1, 60 min", "value": 40.07, "unit": "µg/mL"},
      {"measurement": "Vmax of ciprofol metabolism", "setting": "[2]; HLMs 0.6 mg·mL^-1, 60 min", "value": 42.39, "unit": "ng·min^-1·mg protein^-1"},
      {"measurement": "reduction of ciprofol ΔC (Enzymatic reaction kinetics)", "setting": "[2]; HLMs 0.6 mg·mL^-1, 60 min, initial ciprofol C 4 μg/mL", "value": "3.114 µg/mL and 3.093 µg/mL and 3.175 µg/mL and 3.13 µg/mL"},
      {"measurement": "reduction of ciprofol ΔC (Enzymatic reaction kinetics)", "setting": "[2]; HLMs 0.6 mg·mL^-1, 60 min, initial ciprofol C 8 μg/mL", "value": "6.89 µg/mL and 6.98 µg/mL and 7.022 µg/mL and 6.96 µg/mL"},
      {"measurement": "reduction of ciprofol ΔC (Enzymatic reaction kinetics)", "setting": "[2]; HLMs 0.6 mg·mL^-1, 60 min, initial ciprofol C 16 μg/mL", "value": "12.73 µg/mL and 12.88 µg/mL and 12.21 µg/mL and 12.61 µg/mL"},
      {"measurement": "reduction of ciprofol ΔC (Enzymatic reaction kinetics)", "setting": "[2]; HLMs 0.6 mg·mL^-1, 60 min, initial ciprofol C 32 μg/mL", "value": "17.77 µg/mL and 19.4 µg/mL and 16.95 µg/mL and 18.04 µg/mL"},
      {"measurement": "reduction of ciprofol ΔC (Enzymatic reaction kinetics)", "setting": "[2]; HLMs 0.6 mg·mL^-1, 60 min, initial ciprofol C 48 μg/mL", "value": "23.33 µg/mL and 25.1 µg/mL and 23.91 µg/mL and 24.11 µg/mL"},
      {"measurement": "reduction of ciprofol ΔC (Enzymatic reaction kinetics)", "setting": "[2]; HLMs 0.6 mg·mL^-1, 60 min, initial ciprofol C 80 μg/mL", "value": "28.42 µg/mL and 27.74 µg/mL and 27.36 µg/mL and 27.84 µg/mL"},
      {"measurement": "ciprofol concentration in incubation system (Incubation time)", "setting": "[2]; HLMs 0.6 mg·mL^-1, ciprofol 40 μg·mL^-1, T 0 min", "value": "37.89 µg/mL and 38.98 µg/mL and 40.56 µg/mL and 39.14 µg/mL"},
      {"measurement": "ciprofol concentration in incubation system (Incubation time)", "setting": "[2]; HLMs 0.6 mg·mL^-1, ciprofol 40 μg·mL^-1, T 10 min", "value": "36.11 µg/mL and 34.79 µg/mL and 36.39 µg/mL and 35.76 µg/mL"},
      {"measurement": "ciprofol concentration in incubation system (Incubation time)", "setting": "[2]; HLMs 0.6 mg·mL^-1, ciprofol 40 μg·mL^-1, T 20 min", "value": "31.73 µg/mL and 29.56 µg/mL and 32.69 µg/mL and 31.33 µg/mL"},
      {"measurement": "ciprofol concentration in incubation system (Incubation time)", "setting": "[2]; HLMs 0.6 mg·mL^-1, ciprofol 40 μg·mL^-1, T 30 min", "value": "28.14 µg/mL and 24.88 µg/mL and 28.27 µg/mL and 27.10 µg/mL"},
      {"measurement": "ciprofol concentration in incubation system (Incubation time)", "setting": "[2]; HLMs 0.6 mg·mL^-1, ciprofol 40 μg·mL^-1, T 40 min", "value": "26.01 µg/mL and 21.75 µg/mL and 25.61 µg/mL and 24.46 µg/mL"},
      {"measurement": "ciprofol concentration in incubation system (Incubation time)", "setting": "[2]; HLMs 0.6 mg·mL^-1, ciprofol 40 μg·mL^-1, T 60 min", "value": "21.50 µg/mL and 18.33 µg/mL and 20.08 µg/mL and 19.97 µg/mL"},
      {"measurement": "ciprofol concentration in incubation system (Incubation time)", "setting": "[2]; HLMs 0.6 mg·mL^-1, ciprofol 40 μg·mL^-1, T 80 min", "value": "19.59 µg/mL and 17.50 µg/mL and 18.53 µg/mL and 18.54 µg/mL"},
      {"measurement": "ciprofol concentration in incubation system (Incubation time)", "setting": "[2]; HLMs 0.6 mg·mL^-1, ciprofol 40 μg·mL^-1, T 100 min", "value": "18.42 µg/mL and 15.96 µg/mL and 17.83 µg/mL and 17.40 µg/mL"},
      {"measurement": "ciprofol concentration in incubation system (Incubation time)", "setting": "[2]; HLMs 0.6 mg·mL^-1, ciprofol 40 μg·mL^-1, T 120 min", "value": "17.25 µg/mL and 14.82 µg/mL and 15.95 µg/mL and 16.01 µg/mL"},
      {"measurement": "ciprofol concentration in incubation system (Liver microsomal protein concentration)", "setting": "[2]; HLMs, Cprotein 0 mg/mL", "value": "39.87 µg/mL and 40.23 µg/mL and 38.51 µg/mL and 39.54 µg/mL"},
      {"measurement": "ciprofol concentration in incubation system (Liver microsomal protein concentration)", "setting": "[2]; HLMs, Cprotein 0.1 mg/mL", "value": "35.11 µg/mL and 36.09 µg/mL and 35.34 µg/mL and 35.51 µg/mL"},
      {"measurement": "ciprofol concentration in incubation system (Liver microsomal protein concentration)", "setting": "[2]; HLMs, Cprotein 0.2 mg/mL", "value": "30.78 µg/mL and 30.52 µg/mL and 29.4 µg/mL and 30.23 µg/mL"},
      {"measurement": "ciprofol concentration in incubation system (Liver microsomal protein concentration)", "setting": "[2]; HLMs, Cprotein 0.4 mg/mL", "value": "24.5 µg/mL and 24.31 µg/mL and 22.53 µg/mL and 23.78 µg/mL"},
      {"measurement": "ciprofol concentration in incubation system (Liver microsomal protein concentration)", "setting": "[2]; HLMs, Cprotein 0.6 mg/mL", "value": "20.49 µg/mL and 20.86 µg/mL and 19.64 µg/mL and 20.33 µg/mL"},
      {"measurement": "ciprofol concentration in incubation system (Liver microsomal protein concentration)", "setting": "[2]; HLMs, Cprotein 0.8 mg/mL", "value": "19.89 µg/mL and 20.13 µg/mL and 19.02 µg/mL and 19.68 µg/mL"},
      {"measurement": "ciprofol concentration in incubation system (Liver microsomal protein concentration)", "setting": "[2]; HLMs, Cprotein 1 mg/mL", "value": "19.11 µg/mL and 19.68 µg/mL and 20.54 µg/mL and 19.78 µg/mL"},
      {"measurement": "CLint of ciprofol", "setting": "[2]; HLMs, CLint=Vmax/Km", "value": 1.06, "unit": "mL·min^-1·mg protein^-1"},
      {"measurement": "calculated concentration, mean", "setting": "[3]; QC sample level H, mean of H1-H5", "value": 1597.51},
      {"measurement": "ciprofol found after storage, Autosampler", "setting": "[3]; rat plasma, QC 30 ng·mL^-1, autosampler for 24 h after treatment, n = 5", "value": "32.80 ± 1.93", "unit": "ng/mL"},
      {"measurement": "ciprofol found after storage, Room Temperature", "setting": "[3]; rat plasma, QC 30 ng·mL^-1, room temperature for 8 h, n = 5", "value": "30.50 ± 2.27", "unit": "ng/mL"},
      {"measurement": "ciprofol found after storage, Freeze–Thaw", "setting": "[3]; rat plasma, QC 30 ng·mL^-1, three freeze–thaw cycles, n = 5", "value": "33.49 ± 2.03", "unit": "ng/mL"},
      {"measurement": "ciprofol found after storage, Long-Term Storage", "setting": "[3]; rat plasma, QC 30 ng·mL^-1, −40°C for 30 days, n = 5", "value": "32.70 ± 2.85", "unit": "ng/mL"}
    ]}
  ]
}
